# In ChEMBL document CHEMBL1909046, “DrugMatrix in vitro pharmacology data”:
# Key:
# [1] = biological target: T1, Receptor-type tyrosine-protein phosphatase C (Homo sapiens, UniProt P08575); design: species or system Escherichia coli;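 note: inhibition of CD45 enzyme activity measured using DiFMUP as substrate; in other assays of this panel Not Active means under 50% inhibition at 10 µM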
# T1 sequence (P08575 whole entry): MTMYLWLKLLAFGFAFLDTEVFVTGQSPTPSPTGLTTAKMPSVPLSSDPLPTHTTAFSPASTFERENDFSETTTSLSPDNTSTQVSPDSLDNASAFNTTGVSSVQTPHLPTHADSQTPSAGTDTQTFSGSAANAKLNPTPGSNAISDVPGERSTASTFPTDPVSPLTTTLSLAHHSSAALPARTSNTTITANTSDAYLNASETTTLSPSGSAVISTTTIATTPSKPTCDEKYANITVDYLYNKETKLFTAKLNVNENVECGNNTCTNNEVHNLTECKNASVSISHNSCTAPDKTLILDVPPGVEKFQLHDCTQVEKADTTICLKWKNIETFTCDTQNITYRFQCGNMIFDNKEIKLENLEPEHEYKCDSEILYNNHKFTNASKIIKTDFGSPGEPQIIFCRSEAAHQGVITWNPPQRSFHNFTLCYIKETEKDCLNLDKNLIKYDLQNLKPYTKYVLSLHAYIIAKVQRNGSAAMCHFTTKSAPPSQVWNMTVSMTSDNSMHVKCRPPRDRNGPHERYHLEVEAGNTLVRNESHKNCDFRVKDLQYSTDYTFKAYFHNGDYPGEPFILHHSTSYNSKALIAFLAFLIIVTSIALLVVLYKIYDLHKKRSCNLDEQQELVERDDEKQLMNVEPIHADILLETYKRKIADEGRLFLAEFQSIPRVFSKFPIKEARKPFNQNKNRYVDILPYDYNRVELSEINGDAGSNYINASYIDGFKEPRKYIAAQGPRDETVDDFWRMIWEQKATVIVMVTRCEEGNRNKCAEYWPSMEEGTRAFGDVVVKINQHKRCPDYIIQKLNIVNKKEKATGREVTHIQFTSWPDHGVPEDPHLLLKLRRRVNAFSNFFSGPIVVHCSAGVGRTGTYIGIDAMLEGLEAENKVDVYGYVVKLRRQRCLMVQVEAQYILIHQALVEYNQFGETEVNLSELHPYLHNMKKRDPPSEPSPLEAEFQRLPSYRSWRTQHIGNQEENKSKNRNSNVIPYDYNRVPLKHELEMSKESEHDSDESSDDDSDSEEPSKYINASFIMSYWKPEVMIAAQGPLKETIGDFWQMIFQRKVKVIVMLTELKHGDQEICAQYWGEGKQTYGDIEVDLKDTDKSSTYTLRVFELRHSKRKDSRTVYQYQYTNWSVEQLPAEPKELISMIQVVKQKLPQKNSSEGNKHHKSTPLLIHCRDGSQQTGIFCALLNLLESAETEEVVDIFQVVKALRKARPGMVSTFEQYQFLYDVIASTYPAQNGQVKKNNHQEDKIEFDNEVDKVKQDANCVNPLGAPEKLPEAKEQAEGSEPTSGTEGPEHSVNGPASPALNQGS
# [2] = biological target: Adenosine receptor A2a (Homo sapiens, UniProt P29274); assay: DRUGMATRIX: Adenosine A2A radioligand binding (ligand: […]); type: cell membranes, HEK293, Membrane; settings: Not Active = under 50% inhibition at 10 µM
# [3] = biological target: T2, 5-hydroxytryptamine receptor 1A (Rattus norvegicus, UniProt P19327); type: cell membranes, CHO-K1, Membrane; settings: for Ki: read-out: Ki; for all read-outs here: in other assays of this panel Not Active means under 50% inhibition at 10 µM
# T2 sequence (P19327 whole entry): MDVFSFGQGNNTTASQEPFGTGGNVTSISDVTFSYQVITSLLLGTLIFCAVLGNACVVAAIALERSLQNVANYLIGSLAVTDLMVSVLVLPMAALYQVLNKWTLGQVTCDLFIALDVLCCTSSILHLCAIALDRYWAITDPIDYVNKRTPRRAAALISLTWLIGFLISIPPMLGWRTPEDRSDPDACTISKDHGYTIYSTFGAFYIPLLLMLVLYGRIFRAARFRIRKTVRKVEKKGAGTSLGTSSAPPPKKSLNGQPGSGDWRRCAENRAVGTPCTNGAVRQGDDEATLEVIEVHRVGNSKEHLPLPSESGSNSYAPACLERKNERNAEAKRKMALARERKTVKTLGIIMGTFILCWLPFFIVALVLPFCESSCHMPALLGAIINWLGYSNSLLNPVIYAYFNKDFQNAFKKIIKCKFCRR
# [4] = biological target: T3, Alpha-1A adrenergic receptor (Rattus norvegicus, UniProt P43140); assay: DRUGMATRIX: Alpha-1A adrenergic receptor radioligand binding (ligand: prazosin); type: cell membranes, Wistar, Submaxillary gland, Membrane; settings: Not Active = under 50% inhibition at 10 µM
# T3 sequence (P43140 whole entry): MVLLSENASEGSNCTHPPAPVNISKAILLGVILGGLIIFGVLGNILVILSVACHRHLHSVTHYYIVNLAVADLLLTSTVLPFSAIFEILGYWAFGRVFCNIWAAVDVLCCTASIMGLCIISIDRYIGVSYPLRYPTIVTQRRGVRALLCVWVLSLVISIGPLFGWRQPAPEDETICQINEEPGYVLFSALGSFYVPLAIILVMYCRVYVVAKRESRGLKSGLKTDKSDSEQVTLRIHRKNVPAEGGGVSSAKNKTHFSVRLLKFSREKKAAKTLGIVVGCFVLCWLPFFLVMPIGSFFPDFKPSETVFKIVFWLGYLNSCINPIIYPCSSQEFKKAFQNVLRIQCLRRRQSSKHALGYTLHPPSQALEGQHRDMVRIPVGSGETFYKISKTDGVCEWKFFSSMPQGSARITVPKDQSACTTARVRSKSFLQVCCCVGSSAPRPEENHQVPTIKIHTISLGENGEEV
# [5] = biological target: C-C chemokine receptor type 5 (Homo sapiens, UniProt P51681); type: cell membranes, Membrane; settings: hek293; note: in other assays of this panel Not Active means under 50% inhibition at 10 µM
# Sequence of C-C chemokine receptor type 5 (P51681 whole entry): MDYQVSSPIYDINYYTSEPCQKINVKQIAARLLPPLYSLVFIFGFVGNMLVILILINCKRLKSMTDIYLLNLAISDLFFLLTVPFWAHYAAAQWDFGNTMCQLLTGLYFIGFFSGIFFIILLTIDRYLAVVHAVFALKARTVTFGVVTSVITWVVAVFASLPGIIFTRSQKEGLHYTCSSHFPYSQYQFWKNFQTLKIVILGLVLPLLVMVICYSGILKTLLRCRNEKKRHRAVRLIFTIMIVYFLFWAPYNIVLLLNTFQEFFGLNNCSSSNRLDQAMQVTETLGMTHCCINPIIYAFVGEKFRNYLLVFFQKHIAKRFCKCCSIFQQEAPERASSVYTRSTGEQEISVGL
# Sequence of Adenosine receptor A2a (P29274 whole entry): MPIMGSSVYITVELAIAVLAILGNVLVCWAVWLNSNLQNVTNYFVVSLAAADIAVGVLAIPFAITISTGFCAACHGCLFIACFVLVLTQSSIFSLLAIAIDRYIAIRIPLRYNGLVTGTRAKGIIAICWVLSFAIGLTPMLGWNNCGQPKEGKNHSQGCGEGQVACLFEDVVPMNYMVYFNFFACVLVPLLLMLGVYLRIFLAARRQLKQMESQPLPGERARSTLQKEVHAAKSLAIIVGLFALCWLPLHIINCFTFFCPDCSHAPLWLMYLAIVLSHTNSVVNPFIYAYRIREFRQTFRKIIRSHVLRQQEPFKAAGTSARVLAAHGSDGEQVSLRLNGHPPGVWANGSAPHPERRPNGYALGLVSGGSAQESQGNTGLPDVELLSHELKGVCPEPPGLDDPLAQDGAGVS
SMILES,IC50 [1],IC50 ([2]; hek293),IC50 ([3]; cho-k1),IC50 [4],IC50 [5],IC50 ([2]; read-out: IC50),Ki ([2]; read-out: Ki),IC50 ([3]; read-out: IC50),Ki [3]
CC1=Nc2ccc(Cl)cc2S(=O)(=O)N1 [DIAZOXIDE],Not Active,Not Active,Not Active,Not Active,Not Active,,,,
CCCCCCCCCc1ccc(O)cc1 [4-NONYLPHENOL],Not Active,Not Active,Not Active,Not Active,Not Active,,,,
CC1COc2c(N3CCN(C)CC3)c(F)cc3c(=O)c(C(=O)O)cn1c23 (stereo not drawn) [OFLOXACIN],Not Active,Not Active,Not Active,Not Active,Not Active,,,,
CC(C)(S)[C@@H](N)C(=O)O [PENICILLAMINE],Not Active,Not Active,Not Active,Not Active,Not Active,,,,
CC(=O)CCCCn1c(=O)c2c(ncn2C)n(C)c1=O [PENTOXIFYLLINE],Not Active,Not Active,Not Active,Not Active,Not Active,,,,
Nc1nc(=O)[nH]cc1F [FLUCYTOSINE],Not Active,Not Active,Not Active,Not Active,Not Active,,,,
CCC1(c2ccccc2)C(=O)NCNC1=O [PRIMIDONE],Not Active,Not Active,Not Active,Not Active,Not Active,,,,
CCCCOC(=O)c1ccc(N)cc1 [BUTAMBEN],Not Active,Not Active,Not Active,Not Active,Not Active,,,,
C=C1[C@@H]2CCC3[C@@](CC[C@@H]4[C@H](C(=O)O)C[C@@H](O[C@@H]5O[C@H](CO)[C@@H](OS(=O)(=O)[O-])[C@H](OS(=O)(=O)[O-])[C@H]5OC(=O)CC(C)C)C[C@@]34C)(C2)[C@@H]1O.[K+].[K+] (stereo partly drawn) [ATRACTYLOSIDE],Not Active,Not Active,Not Active,Not Active,Not Active,,,,
CC1(C)[C@@H](O[C@H]2O[C@H](C(=O)O)[C@@H](O)[C@H](O)[C@H]2O[C@@H]2O[C@H](C(=O)O)[C@@H](O)[C@H](O)[C@H]2O)CC[C@]2(C)[C@H]3C(=O)C=C4[C@@H]5C[C@@](C)(C(=O)O)CC[C@]5(C)CC[C@@]4(C)[C@]3(C)CC[C@@H]12 [GLYCYRRHIZIN],Not Active,Not Active,Not Active,Not Active,Not Active,,,,
Cn1cnc([N+](=O)[O-])c1Sc1ncnc2nc[nH]c12 [AZATHIOPRINE],Not Active,Not Active,Not Active,Not Active,Not Active,,,,
CC(C)n1c(/C=C/C(O)CC(O)CC(=O)O)c(-c2ccc(F)cc2)c2ccccc21 (stereo not drawn) [FLUVASTATIN],Not Active,Not Active,Not Active,Not Active,Not Active,,,,
Oc1c(Cl)cc(Cl)cc1Sc1cc(Cl)cc(Cl)c1O [BITHIONOL],Not Active,,,Not Active,Not Active,1170 nM,655 nM,5510 nM,3150 nM
Cc1c(-c2ccccc2)oc2c(C(=O)OCCN3CCCCC3)cccc2c1=O [FLAVOXATE],Not Active,Not Active,Not Active,Not Active,Not Active,,,,
COc1ccc2c(c1)c(CC(=O)OCC(=O)O)c(C)n2C(=O)c1ccc(Cl)cc1 [ACEMETACIN],Not Active,Not Active,Not Active,Not Active,Not Active,,,,
COc1ccc([C@@H]2Sc3ccccc3N(CCN(C)C)C(=O)[C@@H]2OC(C)=O)cc1 [DILTIAZEM],Not Active,Not Active,Not Active,Not Active,Not Active,,,,
NCC[C@H](O)C(=O)N[C@@H]1C[C@H](N)[C@@H](O[C@H]2O[C@H](CN)[C@@H](O)[C@H](O)[C@H]2O)[C@H](O)[C@H]1O[C@H]1O[C@H](CO)[C@@H](O)[C@H](N)[C@H]1O [AMIKACIN],Not Active,Not Active,Not Active,Not Active,Not Active,,,,
CC(C)(Oc1ccc(CCNC(=O)c2ccc(Cl)cc2)cc1)C(=O)O [BEZAFIBRATE],Not Active,Not Active,Not Active,Not Active,Not Active,,,,
CC(C)NC[C@H](O)COc1cccc2[nH]ccc12,Not Active,Not Active,,Not Active,Not Active,,,28 nM,16 nM
CCCSc1ccc2nc(NC(=O)OC)[nH]c2c1 [ALBENDAZOLE],Not Active,Not Active,Not Active,Not Active,Not Active,,,,
C=C1C(=O)O[C@@H]2C3O[C@]3(C)CC/C=C(\C)CC[C@@H]12 (stereo partly drawn),Not Active,Not Active,Not Active,Not Active,Not Active,,,,
CN1C(C(=O)Nc2ccccn2)=C(O)c2ccccc2S1(=O)=O [PIROXICAM],Not Active,Not Active,Not Active,Not Active,Not Active,,,,
COc1c(N2CCNC(C)C2)c(F)cc2c(=O)c(C(=O)O)cn(C3CC3)c12 (stereo not drawn) [GATIFLOXACIN],Not Active,Not Active,Not Active,Not Active,Not Active,,,,
CC(/C=C1\SC(=S)N(CC(=O)O)C1=O)=C\c1ccccc1,Not Active,Not Active,Not Active,Not Active,Not Active,,,,
